According to ChEMBL document CHEMBL1806415, “Growth inhibition of Escherichia coli and methicillin-resistant Staphylococcus aureus by targeting cellular methionine aminopeptidase” (Eur J Med Chem, 2011):
In brackets after ≈: the same amount, converted by molar mass. Activity calls are given as the source filed them. No cut-off for these calls is given here.

Assays:
Escherichia coli [1] = experiment: Antibacterial activity against Escherichia coli AS19 assessed as growth inhibition after 10 hrs by spectrophotometry; format: functional, organism-based; conditions: AS19, 10 h
Staphylococcus aureus [2] = experiment: Antibacterial activity against […] Staphylococcus aureus ATCC 43300 assessed as growth inhibition after 10 hrs by spectrophotometry; format: functional, organism-based; conditions: ATCC 43300, 10 h
Staphylococcus aureus [3] = experiment: Antibacterial activity against methicillin-resistant Staphylococcus aureus ATCC BAA1680 assessed as growth inhibition after 10 hrs by spectrophotometry; format: functional, organism-based; conditions: ATCC BAA1680, 10 h
[4] = Inhibition of Escherichia coli recombinant MetAP expressed in Escherichia coli BL21(DE3) assessed as production of fluorescent aminomethylcoumarin using Met-AMC as substrate by fluorescence assay in presence of […]
Escherichia coli [5] = experiment: Inhibition of MetAP in Escherichia coli AS19 harboring pBACE plasmid assessed as cellular accumulation of unprocessed GST after 50 hrs by mass spectrometry

Work on `CCCCc1ccsc1-c1ccc(O)c(O)c1` yielded an MIC90 (Escherichia coli [1]) of 5 µg/mL (≈ 20.1 µM), an IC50 (Staphylococcus aureus [2]) of 8.2 µM and an MIC90 (Staphylococcus aureus [2]) of 5 µg/mL (≈ 20.1 µM). It also gave an IC50 (Staphylococcus aureus [3]) of 12.4 µM, an MIC90 (Staphylococcus aureus [3]) of 4 µg/mL (≈ 16.1 µM) and an IC50 [4] of 37.3 µM.

`Cc1sc(C)c(-c2ccc(O)c(O)c2)c1Br` showed an MIC90 (Escherichia coli [1]) of 5 µg/mL (≈ 16.7 µM), an IC50 (Staphylococcus aureus [2]) of 12.2 µM and an MIC90 (Staphylococcus aureus [2]) of 18 µg/mL (≈ 60.2 µM). For the same compound, the IC50 (Staphylococcus aureus [3]) was 23.2 µM, the MIC90 (Staphylococcus aureus [3]) was 13 µg/mL (≈ 43.5 µM) and the IC50 [4] was 63.6 µM.

Work on `Oc1ccc(-c2ccsc2)cc1O` yielded an MIC90 (Escherichia coli [1]) of 15 µg/mL (≈ 78 µM), an IC50 (Staphylococcus aureus [2]) of 11.7 µM and an MIC90 (Staphylococcus aureus [2]) of 11 µg/mL (≈ 57.2 µM). For the same compound, the IC50 (Staphylococcus aureus [3]) was 41.7 µM, the MIC90 (Staphylococcus aureus [3]) was 13 µg/mL (≈ 67.6 µM) and the IC50 [4] was 38.4 µM.

Compound `Oc1ccc(-c2cc(Cl)sc2Cl)cc1O` has an MIC90 (Escherichia coli [1]) of 3 µg/mL (≈ 11.5 µM), an IC50 (Staphylococcus aureus [2]) of 11.3 µM and an MIC90 (Staphylococcus aureus [2]) of 4 µg/mL (≈ 15.3 µM). It also gave an IC50 (Staphylococcus aureus [3]) of 4.6 µM, an MIC90 (Staphylococcus aureus [3]) of 2 µg/mL (≈ 7.66 µM) and an IC50 [4] of 51.9 µM. For the same compound, the inhibition (Escherichia coli [5]) was “Active”.

Compound `Oc1ccc(-c2sccc2Cl)cc1O` has an IC50 (Escherichia coli [1]) of 23.3 µM, an MIC90 (Escherichia coli [1]) of 5 µg/mL (≈ 22.1 µM) and an IC50 (Staphylococcus aureus [2]) of 25.8 µM. For the same compound, the MIC90 (Staphylococcus aureus [2]) was 12 µg/mL (≈ 52.9 µM), the IC50 (Staphylococcus aureus [3]) was 63.8 µM and the MIC90 (Staphylococcus aureus [3]) was 25 µg/mL (≈ 110 µM). The IC50 [4] was 15.4 µM and the inhibition (Escherichia coli [5]) was “Active”.

Work on `CCCc1ccsc1-c1ccc(O)c(O)c1` yielded an MIC90 (Escherichia coli [1]) of 4 µg/mL (≈ 17.1 µM), an IC50 (Staphylococcus aureus [2]) of 13.9 µM and an MIC90 (Staphylococcus aureus [2]) of 16 µg/mL (≈ 68.3 µM). For the same compound, the IC50 (Staphylococcus aureus [3]) was 33.4 µM, the MIC90 (Staphylococcus aureus [3]) was 11 µg/mL (≈ 46.9 µM) and the IC50 [4] was 49.5 µM.

For `Oc1ccc(-c2sc(Cl)c(Cl)c2Cl)cc1O`, the IC50 (Escherichia coli [1]) was 2.3 µM, the IC50 (Staphylococcus aureus [2]) was 2.8 µM and the MIC90 (Staphylococcus aureus [2]) was 1 µg/mL (≈ 3.38 µM). For the same compound, the IC50 (Staphylococcus aureus [3]) was 1 µM, the MIC90 (Staphylococcus aureus [3]) was 0.7 µg/mL (≈ 2.37 µM) and the IC50 [4] was 22.1 µM.
